Test results published in article PMC10281575, “PfCRT mutations conferring piperaquine resistance in falciparum malaria shape the kinetics of quinoline drug binding and transport” (PLOS Pathogens, 2023).
Several values for one entry are separate records, joined by “and”; a condition that tells them apart may be missing. Equal values may be shown once.

Target: T1, PfCRT^Dd2 (Plasmodium falciparum, UniProt Q8IBZ9, A220S/I356T/K76T/M74I/N326S/N75E/Q271E/R371I)
T1 sequence (Q8IBZ9 1-424 M74I/N75E/K76T/A220S/Q271E/N326S/I356T/R371I): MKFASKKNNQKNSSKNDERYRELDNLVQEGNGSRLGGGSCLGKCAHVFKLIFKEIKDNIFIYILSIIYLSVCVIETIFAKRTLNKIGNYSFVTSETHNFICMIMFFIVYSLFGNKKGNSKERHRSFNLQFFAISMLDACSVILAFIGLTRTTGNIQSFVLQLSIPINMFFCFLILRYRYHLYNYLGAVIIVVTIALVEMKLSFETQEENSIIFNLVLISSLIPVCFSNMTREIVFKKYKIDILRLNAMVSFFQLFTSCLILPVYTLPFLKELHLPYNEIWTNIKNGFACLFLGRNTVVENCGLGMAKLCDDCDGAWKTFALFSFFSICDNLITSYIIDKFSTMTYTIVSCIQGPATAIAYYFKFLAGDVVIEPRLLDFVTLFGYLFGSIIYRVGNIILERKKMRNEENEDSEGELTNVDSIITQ
Assay: Radiolabeled drug uptake (transport assay) in Xenopus laevis oocytes expressing PfCRT^Dd2
Assay type: cell-based
Parameters: expressed in transfected cells; host or cells: Xenopus laevis oocytes injected with in vitro transcribed RNA (pSP64T)
Protocol: The two kinetic parameters were derived by fitting the Michaelis-Menten equation to the kinetic data (Table 1).
Adult female X. laevis frogs (purchased from NASCO) were anesthetized by submersion in a solution of 0.3% (w/v) 3-amino benzoate methanesulfonate for 15 min. Sections of the ovary were surgically removed and placed in Ca^2+-free ND96 buffer supplemented with 0.1% collagenase D (w/v; Roche), 0.5% BSA (w/v) and 9 mM Na2HPO4 at 18°C for 14–16 h while gently shaking. The oocytes were then washed several times with ND96 buffer (5 mM HEPES, pH 7.5, 96 mM NaCl, 2 mM KCl, 1.8 mM CaCl2, 1 mM MgCl2), supplemented with […] gentamycin. Healthy-looking stage V-VI oocytes were manually selected and randomly grouped for injection. A codon-optimized coding sequence of PfCRT was subcloned into the pSP64T expression vector and subsequently linearized using the restriction endonuclease BamHI or SalI (New England Biolabs GmbH). RNA for injection was transcribed in vitro using the mMESSAGE mMACHINE SP6 Transcription kit (Ambion), diluted with nuclease-free water to a final concentration of 0.6 μg/μL and stored at -80°C. RNA was injected using precision-bore glass capillary tubes (3.5-inch glass capillaries; Drummond Scientific Co.), which were pulled on a vertical puller (P-87 Flaming/Brown micropipette puller, Sutter Instrument Co.) and graduated. The micropipettes were connected to a microinjector (Nanoject II Auto-Nanoliter Injector, Drummond Scientific Co.). Injection was conducted under stereomicroscopic control. 50 nL of nuclease-free water alone (control oocytes) or 50 nL of nuclease-free water containing 30 ng of RNA was injected per oocyte. Injected oocytes were kept for 72 h at 18°C in ND96 buffer with two daily buffer changes before being used for further experiments.
Drug transport assays were performed as previously described. Briefly, measurements of radiolabeled drug uptake were made over 1 h, unless otherwise specified. […] Where specified, one or more unlabeled drugs were also present at the indicated concentrations. […] The uptake assays were terminated by removing the oocytes from the reaction medium and washing them three times with 2 mL of ice-cold ND96 buffer. Each oocyte was transferred to a separate scintillation vial and lysed by the addition of 200 μL of a 5% SDS solution. The radioactivity in the sample was measured using a liquid scintillation analyser Tri-Carb 4910 TR (PerkinElmer). Water-injected oocytes were analyzed in parallel as a negative control. The buffer from each condition was measured in duplicate in parallel to each experiment to transform counts per minute into pmol of drug. Drug uptake attributable to PfCRT was determined by subtracting the background uptake from water-injected oocytes from that of PfCRT-expressing oocytes. In all cases, at least three independent experiments were performed on oocytes from different frogs, and for each condition in an experiment, measurements were made from 10 oocytes per treatment.

[1] = 50 μM CQ, pH 6.0, total uptake, one value per biological replicate
[2] = 50 μM CQ, pH 6.0, water-injected uptake subtracted, per replicate
[3] = 60 min, pH 6, per biological replicate

In the case of `CCN(CC)CCCC(C)Nc1ccnc2cc(Cl)ccc12` (centres unmarked) [CQ, chloroquine], the “PfCRTDd2-mediated CQ uptake at 10 µM CQ” value (10 µM CQ, single replicates) is reported as 0.97 pmol oocyte-1 h-1 and 1.33 pmol oocyte-1 h-1 and 1.00 pmol oocyte-1 h-1, the “PfCRTDd2 uptake of CQ at 10 min” value [1] is reported as 5.12 pmol oocyte-1 and 4.60 pmol oocyte-1 and 2.93 pmol oocyte-1 and 4.96 pmol oocyte-1 and the “PfCRTDd2 uptake of CQ at 30 min” value [1] is reported as 6.73 pmol oocyte-1 and 14.34 pmol oocyte-1 and 5.71 pmol oocyte-1. For the same compound, the “PfCRTDd2 uptake of CQ at 60 min” value [1] was 19.28 pmol oocyte-1 and 12.33 pmol oocyte-1 and 10.23 pmol oocyte-1 and 14.77 pmol oocyte-1, the “PfCRTDd2 uptake of CQ at 90 min” value [1] was 15.72 pmol oocyte-1 and 19.85 pmol oocyte-1 and 18.63 pmol oocyte-1 and 19.17 pmol oocyte-1 and the “PfCRTDd2 uptake of CQ at 120 min” value [1] was 20.73 pmol oocyte-1 and 30.99 pmol oocyte-1 and 21.07 pmol oocyte-1. For the same compound, the “PfCRTDd2 uptake of CQ at 180 min” value [1] was 26.87 pmol oocyte-1 and 30.32 pmol oocyte-1 and 26.73 pmol oocyte-1 and 25.67 pmol oocyte-1, the “PfCRTDd2-mediated CQ uptake at 10 min” value [2] was 1.03 pmol oocyte-1 and 0.90 pmol oocyte-1 and 1.98 pmol oocyte-1 and 0.91 pmol oocyte-1 and the “PfCRTDd2-mediated CQ uptake at 30 min” value [2] was 1.52 pmol oocyte-1 and 5.01 pmol oocyte-1 and 4.35 pmol oocyte-1. The “PfCRTDd2-mediated CQ uptake at 60 min” value [2] was 4.91 pmol oocyte-1 and 4.76 pmol oocyte-1 and 7.49 pmol oocyte-1 and 5.04 pmol oocyte-1, the “PfCRTDd2-mediated CQ uptake at 120 min” value [2] was 9.09 pmol oocyte-1 and 10.40 pmol oocyte-1 and 9.67 pmol oocyte-1 and the “PfCRTDd2-mediated CQ uptake at 180 min” value [2] was 13.62 pmol oocyte-1 and 9.61 pmol oocyte-1 and 9.37 pmol oocyte-1 and 10.85 pmol oocyte-1. The “PfCRTDd2-mediated CQ uptakeat 90 min” value [2] was 7.12 pmol oocyte-1 and 4.31 pmol oocyte-1 and 9.50 pmol oocyte-1 and 9.09 pmol oocyte-1, the “PfCRTDd2-mediated CQ uptake at 50 µM CQ” value (50 µM CQ, single replicates) was 3.98 pmol oocyte-1 h-1 and 2.97 pmol oocyte-1 h-1 and 3.90 pmol oocyte-1 h-1 and 4.91 pmol oocyte-1 h-1 and 4.76 pmol oocyte-1 h-1 and 7.49 pmol oocyte-1 h-1 and 10.46 pmol oocyte-1 h-1 and 5.04 pmol oocyte-1 h-1 and the “PfCRTDd2-mediated CQ uptake at 100 µM CQ” value (100 µM CQ, single replicates) was 9.74 pmol oocyte-1 h-1 and 9.30 pmol oocyte-1 h-1 and 7.99 pmol oocyte-1 h-1. For the same compound, the “PfCRTDd2-mediated CQ uptake at 200 µM CQ” value (200 µM CQ, single replicates) was 17.86 pmol oocyte-1 h-1 and 9.84 pmol oocyte-1 h-1 and 13.66 pmol oocyte-1 h-1 and 12.77 pmol oocyte-1 h-1, the “PfCRTDd2-mediated CQ uptake at 300 µM CQ” value (300 µM CQ, single replicates) was 20.89 pmol oocyte-1 h-1 and 20.25 pmol oocyte-1 h-1 and 12.53 pmol oocyte-1 h-1 and the “PfCRTDd2-mediated CQ uptake at 400 µM CQ” value (400 µM CQ, single replicates) was 20.30 pmol oocyte-1 h-1 and 20.79 pmol oocyte-1 h-1 and 20.10 pmol oocyte-1 h-1. The “PfCRTDd2-mediated CQ uptake at 500 µM CQ” value (500 µM CQ, single replicates) was 20.49 pmol oocyte-1 h-1 and 20.91 pmol oocyte-1 h-1 and 20.75 pmol oocyte-1 h-1 and 25.01 pmol oocyte-1 h-1, the “PfCRTDd2-mediated CQ uptake at 10 µM CQ” value [3] was 0.97 pmol oocyte-1 h-1 and 1.33 pmol oocyte-1 h-1 and 1.00 pmol oocyte-1 h-1 and the “PfCRTDd2-mediated CQ uptake at 50 µM CQ” value [3] was 3.98 pmol oocyte-1 h-1 and 2.97 pmol oocyte-1 h-1 and 3.90 pmol oocyte-1 h-1 and 4.91 pmol oocyte-1 h-1 and 4.76 pmol oocyte-1 h-1 and 7.49 pmol oocyte-1 h-1 and 10.46 pmol oocyte-1 h-1 and 5.04 pmol oocyte-1 h-1. For the same compound, the “PfCRTDd2-mediated CQ uptake at 100 µM CQ” value [3] was 9.74 pmol oocyte-1 h-1 and 9.30 pmol oocyte-1 h-1 and 7.99 pmol oocyte-1 h-1, the “PfCRTDd2-mediated CQ uptake at 200 µM CQ” value [3] was 17.86 pmol oocyte-1 h-1 and 9.84 pmol oocyte-1 h-1 and 13.66 pmol oocyte-1 h-1 and 12.77 pmol oocyte-1 h-1 and the “PfCRTDd2-mediated CQ uptake at 300 µM CQ” value [3] was 20.89 pmol oocyte-1 h-1 and 20.25 pmol oocyte-1 h-1 and 12.53 pmol oocyte-1 h-1. For the same compound, the “PfCRTDd2-mediated CQ uptake at 400 µM CQ” value [3] was 20.30 pmol oocyte-1 h-1 and 20.79 pmol oocyte-1 h-1 and 20.10 pmol oocyte-1 h-1, the “PfCRTDd2-mediated CQ uptake at 500 µM CQ” value [3] was 20.49 pmol oocyte-1 h-1 and 20.91 pmol oocyte-1 h-1 and 20.75 pmol oocyte-1 h-1 and 25.01 pmol oocyte-1 h-1 and the “Vmax, maximal velocity of drug transport” value (Michaelis-Menten fit, 10-500 μM drug, 60 min, pH 6) was 33 ± 1 pmol oocyte^-1 h^-1. The Km (Michaelis-Menten fit, 10-500 μM drug, 60 min, pH 6, read-out: KM, Michaelis constant) was 260 ± 10 µM and the “PfCRTDd2-mediated CQ transport” value (S6 Fig, per biological replicate) was 7.120 pmol oocyte-1 h-1 and 4.130 pmol oocyte-1 h-1 and 5.320 pmol oocyte-1 h-1.
